A short description of data set [1]: pH and turbidity of 1% soap solution after adding ACH directly or through water-in-oil emulsion. As to conditions: 60 mg ACH directly added to 1% soap solution (Control). It counts as physicochemical. As for the experimental part: A 1% soap solution was prepared by dissolving the soap in distilled water at 70° C., and then cooling the solution to ambient temperature. The formulation of the soap used is given below: […]
To ascertain the stability of the ACH incorporated in the dispersed phase such as the water-in-oil emulsion in accordance with the invention prepared under Example 2b, the soap solution obtained under Example 2a was used, and the effect of direct addition of ACH and the ACH in the water-in-oil emulsion (Example 2b) of the invention was studied.
For the purpose of the above study, two separate batches of the same soap solution of Example 2a was taken. In one batch 60 mg ACH was directly added, and in the other batch 100 mg ACH was added through the water-in-oil emulsion system as per Example 2b above. The pH levels and the turbidity of the respective solutions containing the active ACH directly introduced (Control) and the active ACH in the water-in-oil emulsion (Example 2b) were measured, and the results are reproduced hereunder in Table II.

Data set [2] in a line: Turbidity of 1% ACH solution at varying alkalinity (nephelometric turbidimeter). Format: physicochemical. As to conditions: 1% solution of ACH. As for the experimental part: A 1% solution of ACH having initial pH of 4.6 was subjected to varying alkalinity by using sodium hydroxide solution, and the turbidity of the solution was measured at varying pH levels using a nephelometric turbidimeter.

Aluminum Chlorohydrate [ACH] returned a pH in data set [1] (soap solution alone 10.14) of 9.89. Besides, the Turbidity in data set [1] (soap solution alone 205) was 950; in data set [2] (pH 4.6 (initial pH)), 1.3 NTU; in data set [2] (pH 5.7 (sodium hydroxide)) it was 2.6 NTU; in data set [2] (pH 7.5 (sodium hydroxide)), 504 NTU; in data set [2] (pH 9.6 (sodium hydroxide)), 522 NTU; in data set [2] (pH 10.6 (sodium hydroxide)), 884 NTU.
